Calls of active or inactive are those of the source. The rule behind the calls is not given here.
How the values were obtained:
[1] = system: Tribolium confusum; experiment: Antifeeding activity against Tribolium confusum (confused flour beetle) adults in compound treated wheat wafer disk assessed as relative coefficient of deterrence by feeding deterrent activity test; format: functional
[2] = system: Leptinotarsa decemlineata; experiment: Antifeeding activity against Leptinotarsa decemlineata adults in compound treated wheat wafer disk assessed as relative coefficient of deterrence by feeding deterrent activity test; format: functional
[3] = system: Leptinotarsa decemlineata; experiment: Antifeeding activity against Leptinotarsa decemlineata larvaes in compound treated wheat wafer disk assessed as relative coefficient of deterrence by feeding deterrent activity test; format: functional
[4] = system: Trogoderma granarium; experiment: Antifeeding activity against Trogoderma granarium (khapra beetle ) larvaes in compound treated wheat wafer disk assessed as absolute coefficient of deterrence by feeding deterrent activity test; format: functional
[5] = system: Trogoderma granarium; experiment: Antifeeding activity against Trogoderma granarium (khapra beetle) larvaes in compound treated wheat wafer disk assessed as total coefficient of deterrence by feeding deterrent activity test; format: functional
[6] = system: Leptinotarsa decemlineata; experiment: Antifeeding activity against Leptinotarsa decemlineata adults in compound treated wheat wafer disk assessed as total coefficient of deterrence by feeding deterrent activity test; format: functional
[7] = system: Sitophilus granarius; experiment: Antifeeding activity against Sitophilus granarius (granary weevil) adults in compound treated wheat wafer disk assessed as total coefficient of deterrence by feeding deterrent activity test; format: functional
[8] = system: Leptinotarsa decemlineata; experiment: Antifeeding activity against Leptinotarsa decemlineata larvaes in compound treated wheat wafer disk assessed as absolute coefficient of deterrence by feeding deterrent activity test; format: functional
[9] = system: Tribolium confusum; experiment: Antifeeding activity against Tribolium confusum (confused flour beetle) larvaes in compound treated wheat wafer disk assessed as absolute coefficient of deterrence by feeding deterrent activity test; format: functional
[10] = system: Leptinotarsa decemlineata; experiment: Antifeeding activity against Leptinotarsa decemlineata adults in compound treated wheat wafer disk assessed as absolute coefficient of deterrence by feeding deterrent activity test; format: functional
[11] = system: Sitophilus granarius; experiment: Antifeeding activity against Sitophilus granarius (granary weevil) adults in compound treated wheat wafer disk assessed as absolute coefficient of deterrence by feeding deterrent activity test; format: functional
[12] = system: Sitophilus granarius; experiment: Antifeeding activity against Sitophilus granarius (granary weevil) adults in compound treated wheat wafer disk assessed as relative coefficient of deterrence by feeding deterrent activity test; format: functional
[13] = system: Tribolium confusum; experiment: Antifeeding activity against Tribolium confusum (confused flour beetle) larvaes in compound treated wheat wafer disk assessed as relative coefficient of deterrence by feeding deterrent activity test; format: functional
[14] = system: Tribolium confusum; experiment: Antifeeding activity against Tribolium confusum (confused flour beetle) adults in compound treated wheat wafer disk assessed as total coefficient of deterrence by feeding deterrent activity test; format: functional
[15] = system: Trogoderma granarium; experiment: Antifeeding activity against Trogoderma granarium (khapra beetle) larvaes in compound treated wheat wafer disk assessed as relative coefficient of deterrence by feeding deterrent activity test; format: functional
[16] = system: Aphididae; experiment: Antifeeding activity against Aphididae (aphids) in compound treated chinese cabbage leaves assessed as settled aphids measured up to 24 hr; format: functional, organism-based
[17] = system: Tribolium confusum; experiment: Antifeeding activity against Tribolium confusum (confused flour beetle) larvaes in compound treated wheat wafer disk assessed as total coefficient of deterrence by feeding deterrent activity test; format: functional
[18] = system: Tribolium confusum; experiment: Antifeeding activity against Tribolium confusum (confused flour beetle) adults in compound treated wheat wafer disk assessed as absolute coefficient of deterrence by feeding deterrent activity test; format: functional
[19] = system: Leptinotarsa decemlineata; experiment: Antifeeding activity against Leptinotarsa decemlineata larvaes in compound treated wheat wafer disk assessed as total coefficient of deterrence by feeding deterrent activity test; format: functional

Structure (SMILES) | FDI [1] | FDI [2] | FDI [3] | FDI [4] | FDI [5] | FDI [6] | FDI [7] | FDI [8] | FDI [9] | FDI [10] | FDI [11] | FDI [12] | FDI [13] | FDI [14] | FDI [15] | Activity [16] | FDI [17] | FDI [18] | FDI [19]
COc1ccc2c(c1)OC(C)(C)C1=C2OC(=O)C1 | 94.4 | 49.2 | 55 | 34.5 | 107.6 | 76.8 | 114.1 | 21.7 | -6.7 | 27.6 | 19.7 | 94.4 | 60.3 | 114.1 | 73.1 | Active | 50.6 | 19.7 | 76.7
COc1cc2c(cc1OC)C1=C(CC(=O)O1)C(C)(C)O2 | 91.6 | 29.9 | 62.5 | 31.2 | 116.2 | 49.6 | 105.8 | 32.7 | 59 | 19.7 | 14.2 | 91.6 | 90.7 | 105.8 | 85 | inactive | 149.7 | 14.2 | 95.2
COc1ccc2c(c1)OC(C)(C)C(CC(=O)O)=C2 | 95.7 | 70.9 | 63.6 | 22 | 108 | 94.1 | 97.5 | 35.2 | -6.2 | 23.2 | 1.8 | 95.7 | 86.4 | 97.5 | 86 | inactive | 80.2 | 1.8 | 98.8
COc1cc2c(cc1OC)OC(C)(C)C(CC(=O)O)=C2 | 88.9 | 63.7 | 79.1 | 11.9 | 97.4 | 98.1 | 103.9 | 17.2 | 40.5 | 34.4 | 15 | 88.9 | 73.1 | 103.9 | 85.5 | inactive | 113.6 | 15 | 96.3
COc1cc2c(cc1OC)[C@@H]1OC(=O)C[C@]1(I)C(C)(C)O2 (racemic) | 89.5 | 89.1 | 90.6 | 39.6 | 120.1 | 176.2 | 93.4 | 41.4 | 54.2 | 87.1 | 3.9 | 89.5 | 93.6 | 93.4 | 80.5 | inactive | 147.8 | 3.9 | 132
COc1ccc2c(c1)OC(C)(C)[C@@]1(I)CC(=O)O[C@@H]21 (racemic) | 93.4 | 81.4 | 95.8 | 31.6 | 111.4 | 143 | 114.5 | 38.3 | 16.7 | 61.6 | 21.1 | 93.4 | 77.5 | 114.5 | 79.8 | inactive | 94.2 | 21.1 | 134.1
COc1cc2c(cc1OC)OC(C)(C)C=C2 [PROCOCENE II] | 94.2 | 71.8 | 91.2 | 98.6 | 198.6 | 116 | 194.2 | 32.9 | 68.6 | 44.2 | 100 | 94.2 | 97.1 | 194.2 | 100 | Active | 165.7 | 100 | 124.1
COc1ccc2c(c1)OC(C)(C)C=C2 [PROCOCENE I] | 83.8 | 73.8 | 86.8 | 41.8 | 80.1 | 115.7 | 139 | 77.8 | 55.1 | 41.9 | 55.2 | 83.8 | 64.1 | 139 | 38.3 | Active | 119.2 | 55.2 | 164.6
